Source: patent US20200289482A1, “CYSTIC FIBROSIS TRANSMEMBRANE CONDUCTANCE REGULATOR MODULATORS FOR TREATING AUTOSOMAL DOMINANT POLYCYSTIC KIDNEY DISEASE” (The Johns Hopkins University, priority 2017, published 2020)

Tests used:
PN cells = test: BrdU cell proliferation assay; assay type: cell-based, mouse; settings: 1 and 10 μM vs DMSO-treated cells
Text: FIG. 3A, FIG. 3B, FIG. 3C, and FIG. 3D show cell proliferation is reduced by VX-809. (FIG. 3A-FIG. 3B) Proliferation in kidneys of Pkd1^fl/fl; Pax8^rtTA; TetO-cre mice. Representative images of Ki67 (a cellular marker for proliferation) staining of PN21 kidney sections from DMSO- and VX-809-treated mice. Arrows indicate Ki67-positive cells. Pictures were acquired with a Zeiss microscope equipped with 20× objective. (FIG. 3C) Summary data for Ki67-positive cells. Columns represent averages±standard errors of DMSO (vehicle)-treated (n=3) and VX-809-treated (n=3) mice. Statistical analysis was performed using a two-tailed Student's t test. (FIG. 3D) Proliferation in PN cells. PN cells were treated with VX-809 or DMSO). The bromodeoxyuridine (BrdU) concentration in the cells was measured by using a BrdU cell proliferation assay kit (Millipore Sigma #2750) according to the manufacturer's protocol. Columns represent averages±SEs of the OD of BrdU at 450/550 […]. Data were analyzed using Student's t-test, with n=5-7. Methods were described previously (62). […]; **P<0.01;
A hallmark of the cysts in ADPKD is an increase in proliferation in response to cAMP (23). Therefore, it was determined whether VX-809 would affect proliferation.

Hsp70 = test: Western blot of Hsp70 in kidney tissue lysates; assay type: in vivo, mouse; settings: cyst induced pkd−/− mice, VX-809 30 mg/kg BW
Method: FIG. 7A, FIG. 7B, FIG. 7C, FIG. 7D, FIG. 7E, and FIG. 7F show chaperone expression is altered in mice by VX-809. (FIG. 7A-FIG. 7B) Representative Western blot images of HSP27, 70, 90 and HSP40 in lysates of kidney tissue from no cyst induced (ND), cyst induced with Doxycycline (D) or cyst induced pkd−/− mice treated with VX-809 (D+VX-809) 30 mg/kg BW. (FIG. 7C, FIG. 7D, FIG. 7E, and FIG. 7F) Columns represent averages±standard errors of HSP27, 70, 90 and HSP40 expression. Data were analyzed by non-parametric t-test. n=4 for each treated and control groups. Black lines between lanes represent representative experiments from the same gel. *P<0.05; **P<0.01; To facilitate their growth in the kidney, cysts have developed an altered network of proteins that most likely serves to protect them from stress (34). Next, it was determined whether VX-809 would alter the levels of Hsps in pkd−/− mice and in PN cells. […] Hsp 27, 70 and 90 are all elevated in cystic kidneys compared to normal controls. […] There is no change in Hsp 40. […] Both sets of data are consistent with an alteration in the heat shock response to cyst growth.

Hsp27 = test: Western blot of Hsp27 in PN cells; assay type: cell-based, mouse; settings: VX-809 10 μM 16 h
Method: FIG. 8A, FIG. 8B, FIG. 8C, FIG. 8D, FIG. 8E, FIG. 8F, FIG. 8G, and FIG. 8H show chaperone expression is altered in PH and PN cells by VX-809. (FIG. 8A) Western blot showing expression of HSP27, 70 and HSP 90 in VX-809 treated or control PN cells. […] (FIG. 8E). Western blot of HSP27, 70 and 90 in PH vs. PN cells. […] Whereas, Hsp70 is higher in PH vs. PN cells. Data were analyzed by non-parametric t test. Experiment was repeated 4-5 times. Cells were grown in 10-cm culture dishes at permissive conditions (33° C.) with γ-interferon in culture media. Cells were then transferred to non-permissive conditions at 37° C., γ-interferon free culture media and evaluated at full confluence. At day four, cells were treated with VX-809 (10 μM) for 16 h and harvested on fifth day for assay. *P<0.05., **P<0.01, ***P<0.001, ****P<0.0001; To facilitate their growth in the kidney, cysts have developed an altered network of proteins that most likely serves to protect them from stress (34). Next, it was determined whether VX-809 would alter the levels of Hsps in pkd−/− mice and in PN cells. […] Hsp 27, 70 and 90 are all elevated in cystic kidneys compared to normal controls. […] There is no change in Hsp 40. […] Both sets of data are consistent with an alteration in the heat shock response to cyst growth.

CFTR = CFTR (Mus musculus, UniProt P26361); test: Confocal microscopy localization of CFTR; assay type: cell-based; parameters: endogenous in cells; settings: VX-809 treated vs control cells; ER, Golgi and PM markers
Sequence of CFTR (P26361 whole entry): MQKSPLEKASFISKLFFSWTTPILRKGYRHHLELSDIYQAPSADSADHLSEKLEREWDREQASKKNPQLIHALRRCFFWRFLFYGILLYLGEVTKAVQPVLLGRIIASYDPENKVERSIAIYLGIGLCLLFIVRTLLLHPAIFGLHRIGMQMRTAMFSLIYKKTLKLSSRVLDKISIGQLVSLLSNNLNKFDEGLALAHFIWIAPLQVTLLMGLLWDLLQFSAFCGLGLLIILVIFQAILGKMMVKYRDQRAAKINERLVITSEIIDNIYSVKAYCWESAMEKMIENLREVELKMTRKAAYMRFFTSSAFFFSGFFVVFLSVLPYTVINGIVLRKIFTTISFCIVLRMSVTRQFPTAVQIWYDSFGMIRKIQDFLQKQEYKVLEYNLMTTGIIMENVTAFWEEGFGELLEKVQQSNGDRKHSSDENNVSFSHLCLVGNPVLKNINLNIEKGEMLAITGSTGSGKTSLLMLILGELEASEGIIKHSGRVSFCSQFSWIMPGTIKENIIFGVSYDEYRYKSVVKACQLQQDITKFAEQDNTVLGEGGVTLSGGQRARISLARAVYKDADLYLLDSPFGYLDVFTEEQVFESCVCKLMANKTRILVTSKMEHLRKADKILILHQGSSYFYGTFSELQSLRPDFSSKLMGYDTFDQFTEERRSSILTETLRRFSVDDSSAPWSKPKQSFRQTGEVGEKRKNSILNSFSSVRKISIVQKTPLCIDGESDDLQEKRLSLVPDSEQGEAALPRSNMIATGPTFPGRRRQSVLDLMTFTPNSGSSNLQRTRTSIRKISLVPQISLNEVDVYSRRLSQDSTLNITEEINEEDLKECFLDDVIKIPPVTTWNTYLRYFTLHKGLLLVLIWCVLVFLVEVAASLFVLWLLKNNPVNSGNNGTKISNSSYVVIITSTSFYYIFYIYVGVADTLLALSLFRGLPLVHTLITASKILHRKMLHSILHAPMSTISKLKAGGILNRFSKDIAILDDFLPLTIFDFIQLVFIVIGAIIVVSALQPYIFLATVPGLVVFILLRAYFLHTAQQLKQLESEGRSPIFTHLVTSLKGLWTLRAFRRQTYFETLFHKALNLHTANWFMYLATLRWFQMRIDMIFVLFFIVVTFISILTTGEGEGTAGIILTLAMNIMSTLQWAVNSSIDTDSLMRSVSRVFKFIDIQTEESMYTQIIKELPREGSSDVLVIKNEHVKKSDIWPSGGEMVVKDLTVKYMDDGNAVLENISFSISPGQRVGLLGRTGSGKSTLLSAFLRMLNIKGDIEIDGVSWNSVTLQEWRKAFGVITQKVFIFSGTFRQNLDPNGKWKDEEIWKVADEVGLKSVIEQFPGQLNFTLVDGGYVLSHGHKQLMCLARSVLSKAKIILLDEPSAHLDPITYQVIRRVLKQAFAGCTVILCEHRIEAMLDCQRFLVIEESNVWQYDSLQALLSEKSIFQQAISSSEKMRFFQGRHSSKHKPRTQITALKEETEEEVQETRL
Text: FIG. 18A and FIG. 18B show images of confocal microscopy localization studies of CFTR and localization markers in control and treated cells (FIG. 18A) and graphs showing Pearson's correlation coefficient for CFTR and localization markers in control and VX-809 treated cells (FIG. 18B).
The localization of PC2 and CFTR in control cells was compared to the localization of PC2 and CFTR localization in VX-809 treated cells.

lumacaftor [VX-809]
cell proliferation (BrdU) (PN cells): significantly inhibit cell proliferation | Hsp70 expression in kidneys (Hsp70): significantly less expression | Hsp27 expression in PN cells (Hsp27): reduced expression | localization of CFTR (CFTR): statistically significant move of CFTR from the ER to Basolateral and Apical Membrane
